The results in this text go back to patent US20040122209A1, “Products for regulating the degradation of collagen and methods for identifying same” (Shriners Hospital For Children, priority 2002, published 2004).

Assay type in all cases: cell-based
One experiment relates to MMP-1. As to the kind of experiment: ELISA for MMP-1 in conditioned medium of human chondrocytes. The following applies: 48 hours; CB12-II 50 μM, TNF-α 50 ng/ml. The method, then:
First-passaged normal human chondrocytes isolated by the method described above and cultured at high density (2×10^5 cells/cm^2) were trypsinized and resuspended in Medium A containing 1% FCS at a density of 10^6 cells/ml. Then, 200 μl of the cell suspension was each plated onto round-bottomed 96-well culture plate. On the next day after plating, CB12-II at 50 μM, USP at 50 μM, and TNF-α at 50 ng/ml were added to the culture media, and the culture was maintained for 24-48 hours. Conditioned media were collected and subjected to ELISA assay. The ELISA kits (BIOTRAK) for MMP-1 and MMP-13 were purchased from Amersham Pharmacia Biotech (Piscataway, N.J.). Measurement range was 6.25-100 ng/ml for MMP-1 and 0.094-3 ng/ml for MMP-13. Sensitivity for the assay was 1.7 ng/ml for MMP-1 and 0.7 ng/ml for MMP-13.
Protein levels of MMP-1 and MMP-13 were also tested by incubating isolated human chondrocytes for 48 hours in high density culture (10^6 cells/ml) with CB12-II, negative control peptide USP, or cytokine TNF-α, as discussed above. MMP-1 and MMP-13 secretion into medium from the cells was measured using ELISA (see FIGS. 9A and 9B).
(In general: An ELISA detects its analyte on a solid surface through an enzyme-linked reagent.)

For experiment [1], the system named is isolated human chondrocytes. As to the kind of experiment: Cell attachment assay (total cellular hexosaminidase). To be noted: preliminary studies. The protocol: Ninety six-well, non-tissue culture plates were coated with a peptide fragment of the invention (CB12-II), a negative control peptide (USP), or human fibronectin in PBS at various concentrations overnight at room temperature in the laminar flow hood. […] Optimal binding was obtained with concentration of 10 μg/ml for CB12-II. After the plates were washed once with PBS, additional protein binding sites in the plate wells were blocked with 5% heat-denatured BSA in PBS at 37° […] for 1 hour. Freshly isolated human chondrocytes were recovered for 2 hours as described above, and then added to on substrate-coated plates at the density of 1×10^7 cells/ml (0.5-2×10^6 cells/well) and incubated at 37° C. for 1 hour. The chondrocyte suspensions were preincubated with 5 μg/ml anti-integrin blocking antibodies (from Chemicon): al (clone CB12), a2 (clone P1E6), a5, (clone DID6), α1 (clone 6S6), α2 (cloneP4H9), α3 (clone 25EW), α2β1 (clone BHA2.1), and α5β1 (clone JBS5) at 4° C. for 30 min prior to adding cells to the pre-coated wells for 1 hour at 37° C. Unattached cells were removed and the wells were washed gently twice with PBS. Bound cells were then quantitated by measuring total cellular hexosaminidase as described (36, 37). […] After a 6-h incubation, 90 μl of 50 mM glycine, 5 mM EDTA, pH 10.4 was added, and the absorbance was read at 405 nm.

In experiment [2] the test system is adult bovine articular cartilage. As to the kind of experiment: RT-PCR of hypertrophy and degradation genes in bovine articular cartilage explant culture. The protocol: Total RNA was isolated from chondrocytes or cartilage explants by the guanidine isothiocyanate procedure according to Chomczynski and Sacchi (Chomczynski, P. et al., Anal. Biochem. 162:156-9 (1987)) with some modifications. Briefly, chondrocytes (1-2×10^6 cells) or cartilage tissue (200-300 mg) were solubilized in solution D (4 M guanidine isothiocyanate, 20 mM sodium acetate/pH 5.2, 0.1 M 2-mercaptoethanol and 0.5% N-lauroylsarcosine). One volume of isopropanol was added to the mixture and all proteins and nucleic acids were precipitated at −20° C. overnight. […] The total RNA pellet was resuspended in diethyl pyrocarbonate-treated (DEPC) water and the amount of total RNA was measured by reading optical density at 260 nm. […]
One microliter of reverse transcribed total RNA was incubated with 2.5 U of AmpliTaq™ DNA polymerase (Perkin Elmer, Branchburg, N.J.) in 50 mM KCl, 1.5 mM MgCl2, 10 mM Tris-HCl, pH 8.3, 200 μM dNTP mix and 0.5 μmol each of oligonucleotide primers in 50 μl reaction mixture. […] The digital images of the gel were analyzed using NIH 1.60 imaging software to evaluate the pixel intensity of the band of the PCR products. […] The band intensities were determined to be below saturation. […]
MMP-13 expression was maximal by 12 days. Gene expression was determined by RT-PCR analyses of mRNA in the manner used to detect expression of MMPs and cytokines described elsewhere. […]

Turning to ERGPPGPQGARGFPGTPGLPGVK [CB12-II], the “MMP-1 secretion into medium versus no peptide and negative control peptide (USP)” value in the experiment on MMP-1 was “significantly higher”. Besides, the “coating concentration giving optimal binding of chondrocytes” value in experiment [1] turned out to be 10 µg/mL. Moreover, the “time at which MMP-13 expression was maximal” value in experiment [2] was at most 12 days. In experiment [2] (induction within a 24-48 hr period), the “expression of genes characteristic of chondrocyte hypertrophy (COLX, MMP-9, TGF-B1, IHH, MMP-13, CBFA1, SOX 9, bFGF, pTHrP, caspase-3, MT1-MMP, IL-1B, MMP-1)” value was “rapid induction”.
